Row | Structure (SMILES) | melting point [°C]
1 | O=C(O)c1ccc(OCCCON=Cc2ccc(-c3ccccc3)cc2)cc1NC(=O)c1ccccc1C(F)(F)F | 170 to 172
2 | O=C(OCc1ccccc1)[C@H](O)CCc1ccccc1 | 59 to 60
3 | c1ccc2c(c1)ncc1ncsc12 | 114 to 116
4 | COc1cc2c(cc1OC(C)C)-c1c(Br)c3c(n1CC2)C(=O)N(C(C)(C)C)CCOC3 | 160 to 162
5 | O=C(c1ccccc1)c1c[nH]c2ncnc(Nc3cccc(CCO)c3)c12 | > 300
6 | COC(=O)c1cccc(-c2ccc(OC)c3c2CC(C)(C)O3)c1 | 89 to 91
7 | CC(=O)OC1CSC(Oc2cc(Br)cnc2Cl)C(OC(C)=O)C1OC(C)=O (centres undefined) | 143 to 147
8 | N#Cc1c[nH]c2cc(N3CCC(N4CCCC4)CC3)c([N+](=O)[O-])cc2c1=O | 232 to 235
9 | CC(=O)SCCCc1ccc(C2OCC(C)(C)CO2)cc1 | 44
10 | O=C(O)c1cnncc1C(F)(F)F | 150 to 151
11 | O=C1c2cc(C(F)(F)F)c(C(F)(F)F)cc2C(=O)c2cc3ccccc3cc21 | > 280
12 | CSc1c(C=C(C#N)S(C)(=O)=O)c2ccccc2n1Cc1ccccc1 | 125 to 126
13 | NS(=O)(=O)c1ccc(OCCOc2ccc(C(=O)C(=O)O)cc2)cc1 | 178 to 179
14 | CCOc1ccc(C(=O)OC)cc1C(N)=O | 159 to 161
15 | O=C(CBr)c1ccc(Br)c(Br)c1 | 60 to 61
16 | CCCCc1nc2c(N)nc3ccccc3c2n1CCCNS(=O)(=O)c1ccccc1 | 210 to 212
17 | O=C(O)c1cccc(-c2cccc(Oc3ccc(Cl)c(Cl)c3)n2)c1 | 230 to 231
18 | CCCc1nc2cccc(C(=S)OC)c2n1Cc1ccc(-c2ccccc2-c2nc(=O)o[nH]2)cc1 | 220 to 221
19 | C#CCN1CCCc2ccc(OC(=O)Nc3ccccc3C)cc21 | 96
20 | C=C1CC2(C)C(O)CCC2C2C(C)CC3=CC(=O)CCC3C12 (centres undefined) | 138 to 139
21 | CN1C(=O)C=C(c2ccccc2)C1(C)O (centres undefined) | 148 to 152
22 | CN(C)c1nc2ccccc2nc1/C=C/c1nc(Cl)cc(N2CCCC2)n1 | 196 to 197
23 | CC(C)(C)c1nnc(NN=Cc2ccccc2)s1 | 195 to 196
24 | Oc1cc2c(cc1CCc1cccs1)OCC2 | 79 to 85
25 | CCC(Cc1c(I)cc(I)c(NC(=O)CNCCNCCN)c1I)C(=O)O (centres undefined) | 185
26 | CCOc1ccc(-c2nc(C3=CCN(C)CC3)cs2)cc1OCC | 81.2 to 83.6

Row | Structure (SMILES) | melting point [°C]
27 | O=c1ccn(-c2cc3[nH]c(=O)c(=O)[nH]c3cc2F)cc1 | > 300
28 | CC1CCCN(c2ccc([N+](=O)[O-])cc2C(=O)c2ccc(Cl)cc2)C1 (centres undefined) | 112
29 | NC(=O)c1c(F)ccc(OCc2nc3cc(Br)ccc3s2)c1F | 244 to 246
30 | CCCNC(=O)Nc1ccc(N2CCOCC2)cc1C(=O)NCC1CCN(C(c2ccccc2)c2ccccc2)CC1 | 215 to 217
31 | CC(=O)Nc1ccc(C[C@H](NC(=O)N(CCOC(C)=O)CCc2ccccc2)C(=O)NCCN(C)C)cc1 | 87 to 100
32 | CCCc1ccc(N2CCC(O)CC2)nn1 | 138 to 140
33 | COC(=O)C(NS(=O)(=O)c1ccc(-c2ccc(NC(=O)c3oc4cccc(CO[Si](C)(C)C(C)(C)C)c4c3C)cc2)cc1)C(C)C (centres undefined) | 204 to 206
34 | FC(F)(F)c1ccc(-c2cc(Oc3ccc4cccnc4c3)ncn2)c(Br)c1 | 185 to 187
35 | CCOC(=O)C(=CNc1ccc(F)c(F)c1OCC(C)OS(=O)(=O)c1ccc(C)cc1)C(=O)OCC (centres undefined) | 61 to 62
36 | CCCCCOc1ccc(C(=O)Nc2ccc3cc(CN4CCCC4)cnc3c2C)c(F)c1 | 143
37 | Nc1ncc2c(n1)-c1cccnc1CC2 | 220 to 226
38 | CCc1cc2c(s1)S(=O)(=O)Cc1cc(=O)n(-c3ccc(Cl)cc3)nc1-2 | 189 to 191
39 | Oc1ccc(OCCN2CCC(CC34CC5CC(CC(C5)C3)C4)CC2)cc1 | 178 to 179
40 | CC(C)Oc1cc(-n2c(Cl)nc(C(F)(F)F)cc2=O)c(F)cc1Br | 102
41 | CC#CNC(=C[N+](=O)[O-])NCCSCc1ccccn1 | 147 to 148
42 | Cn1cc(-c2cc(-c3c[nH]nc3-c3ccccn3)ccc2F)cn1 | 134 to 136
43 | O=C1C(=O)c2ccc(Cl)cc2C2=C1SCC1(CCNCC1)O2 | > 300
44 | CCN(CC)C(=O)Oc1nc(-c2ccccc2)nc2ccccc12 | 54
45 | Fc1ccc(NC(=S)NN2CC=C(c3ccccc3)CC2)cc1 | 192 to 194
46 | CCCCn1ncc(/C=C(\Cc2cc3c(cc2OC)CCO3)C(=O)O)c1-c1ccc(Cl)cc1OCc1c(Cl)cccc1C(=O)O | 114 to 116
47 | CC(C)(C)C(=O)C(Oc1ccc(Cl)cc1)n1ncnc1S (centres undefined) | 134 to 136
48 | O=C(NCc1ccc(Br)cc1F)c1ccc(Br)cc1[N+](=O)[O-] | 192 to 193
49 | NC(=O)c1cc(F)cc(-c2cccc3cc(Cc4cc(F)cc(Cl)c4)sc23)c1 | 186 to 187
50 | COc1ccc(C2=C(c3ccc(O)cc3)CCCc3cc(O)ccc32)cc1 | 250 to 252
51 | Clc1cc2c(cc1Cl)CC=C2 | 76
52 | COc1c(F)cc(Cn2cc[nH]c2=S)cc1F | 156 to 158

Row | Structure (SMILES) | melting point [°C]
53 | CC1=C(C(=O)Nc2cc(C(=O)OC(C)C)ccc2F)SCCO1 | 132 to 135
54 | O=Cc1cc([N+](=O)[O-])ccc1-c1ccccc1 | 79.5
55 | COC1CCC(CCNC(=O)n2cc(F)c(=O)[nH]c2=O)CC1OC (centres undefined) | 129
56 | O=C(O)c1cncc(-c2ccc(Cl)c(C(=O)NCC34CC5CC(CC(C5)C3)C4)c2)c1 | 178 to 182
57 | O=C(O)c1cccc2ccc(-c3ccccc3)nc12 | 159 to 161
58 | CCCc1c(C(=O)N(C)C)c2ccc(C(N)=O)cc2n1Cc1ccccc1Cl | 213 to 214
59 | CS(=O)(=O)c1cc(C(=O)O)cc(Cl)c1Nc1ccccc1 | 187 to 189
60 | CCC(=O)N1CCC(NC(=O)Nc2ccc(C(F)(F)F)cc2)CC1 | 224 to 228
61 | CCCCCCc1cc2c(cc1OCCCC(=O)O)C(=O)C(C)(C)C2 | 82
62 | CCNC(=O)c1ccc(Nc2nc(OCC3CCCCC3)c3nc[nH]c3n2)cc1 | 156 to 158
63 | O=c1[nH]c(-c2[nH]c3ccccc3c2Cl)no1 | 240 to 241
64 | CC=C(C)C(=O)c1c(O)c2c(c3c(CCC)cc(=O)oc13)OC(C)(C)C=C2 | 110 to 112
65 | CCc1cc(-c2ccc(C(C)=O)cc2)ccc1OC | 69 to 72
66 | O=C(O)CCc1ccc(Sc2ccc(CCC(=O)O)cc2C(F)(F)F)c(C(F)(F)F)c1 | 175 to 178
67 | CCN(CCSCc1[nH]cnc1C)C(=N)NC#N | 118 to 120
68 | C=CCn1cc(C(=O)O)c(=O)c2cc(F)c(N3CCN(C)CC3)cc21 | 208
69 | CN(C)C(=O)NC1CCCc2sccc21 (centres undefined) | 117 to 120
70 | O=C(c1ccccc1)c1ccc(OCc2nnn[nH]2)c(Cl)c1Cl | 184 to 186
71 | CC(=O)SCC(CC(C)C)C(=O)NC(C)C(=O)O (centres undefined) | 157 to 167
72 | COc1ccc(N2CCN(C)CC2)c2c1CC[C@H](NC(=O)c1ccc(N3CCOCC3)cc1)C2 | 229 to 232
73 | CNC(=O)C1CCNc2ccccc21 (centres undefined) | 107
74 | CCCCC1N=C(Cl)/C(=C2\C(=O)Nc3ccccc32)N1Cc1ccc(C(=O)O)cc1 (centres undefined) | 241 to 242
75 | Cc1c(C(=O)N[C@H](C)[C@](O)(Cn2cncn2)c2ccc(F)cc2F)cnn1-c1ccc(F)cc1F | 208 to 209
76 | Oc1ccc(C(O)CN2CCC(O)(c3cccc(F)c3)CC2)cc1 (centres undefined) | 154
77 | COc1cc2nc(C(C)(C)C)sc2cc1NC(=S)SCCC(=O)O | 154 to 156
78 | FC(F)c1nc2ccccc2n1-c1nc(Nc2cncnc2)nc(N2CCOCC2)n1 | 290 to 292

Row | Structure (SMILES) | melting point [°C]
79 | Nc1nccc(-c2cn(-c3ccccc3)nc2-c2ccc(F)cc2)n1 | 170 to 171
80 | C#Cc1cccc(C(=O)OCc2ccccc2)c1N | 42 to 43
81 | Cc1ccccc1CC1=NNC(=O)CC1 | 123 to 125
82 | COC(=O)C(=CNc1ccnc(-c2ccncc2)n1)C(=O)OC | 209 to 211
83 | N#CC(C#N)=C1N(CCCN2CCCCC2)CCN1CCN1CCCCC1 | 88 to 89
84 | CCOC(=O)c1cc(Cl)cnc1N | 120 to 122
85 | C[C@H]1N=C(c2ccccc2F)c2cc(N)ccc2N(C)C1=O | 224 to 226
86 | CC(C)(CCC#N)c1ccc(C(=O)Nc2cn3cc(Cl)ccc3n2)cc1 | 198 to 199
87 | CC(=O)Nc1cccc(C=O)c1 | 68 to 70
88 | O=C(NC(=O)c1c(Cl)cccc1Cl)Nc1ccc(-c2ccc(Cl)cc2)nc1 | 225 to 229
89 | Cc1oc(-c2ccccc2)nc1CCc1nc(CCl)co1 | 71 to 72
90 | CCCOc1ccc(S(=O)(=O)N2CCOCC2)cc1-c1nc2c([nH]1)c1nncn1c(=O)n2CCC | 169
91 | CCOC(=O)c1cc(=O)c2c(OCC(O)COc3ccc(OC)cc3)cccc2o1 (centres undefined) | 135 to 136
92 | Cc1oc2c(NC(=O)c3c(C(=O)OC(C)C)cccc3[N+](=O)[O-])cccc2c1C(C)(C)O | 118 to 120
93 | COc1ccc(N2CCN(c3cccnn3)CC2)cc1 | 133
94 | CNC(=O)[C@@H]1C[C@H](SCc2ccc(OC)cc2)CN1CCO | 88 to 89.5
95 | Nc1ccc(N2C(=O)c3ccc(Cl)cc3C2=O)c(Cl)c1 | 198 to 201
96 | CC12CCC(=O)C=C1CCC1C2=CCC2(C)C1CCC2(O)C(=O)CCl (centres undefined) | 227 to 228
97 | CC(C)CC(CN(C)C)(C(=O)O)C(=O)O | 134 to 137
98 | FCc1nnc2n1-c1ccc(Cl)cc1C(c1ccccc1)=NC2 | 153 to 154
99 | CCCC1=C(C(=O)OCC)C(c2cccc3nsnc23)c2c[nH]nc2N1 (centres undefined) | 180
100 | CN(C)c1nc(N)nc(-c2cc(Cl)ccc2Cl)n1 | 178 to 179
101 | CC(=O)SCC(=Cc1cc(F)cc(F)c1)C(=O)NCCC(=O)OCc1ccccc1 | 82
102 | COc1ccc(C(=O)Cl)cc1C12CC3CC(CC(C3)C1)C2 | 153 to 154
103 | CCC1Cc2cc(OC(C)(C)C(=O)O)c(Cl)c(Cl)c2C1=O (centres undefined) | 165 to 166
104 | NNC(=O)c1cnn(-c2ccc(NN)nn2)c1N | 302 to 305
